These results are taken from US20070232595A1, “Method for accelerating cutaneous barrier recovery” (Shiseido Company, Ltd., priority 2006, published 2007).

The subject of assay [1] is hairless mice. As to the kind of experiment: Skin barrier recovery (TEWL) after tape stripping with topical application. Format: in vivo, mouse. As for the experimental part: Permeability barrier function was evaluated by measurement of transepidermal water loss (TEWL) with an electric water analyzer, as described previously(Denda et al, 1998). For barrier recovery experiments, the flank skin on both sides was subjected to repeated tape stripping until the TEWL reached 7-10 mg per cm^2 per h, as described previously(Denda et al, 1998). As for nNOS-deficient mice and wild-type, the TEWL of the ears was measured over the same sites at 1, 3 and 6 hours after tape stripping. This is because the hair shaving may induce barrier disruption. Therefore, the ears that are hairless parts were selected for TEWL measurements. […] […] The areas were covered with plastic membranes for 15 min and then the membranes were removed. Two points on one flank were measured and 4-8 mice were used to evaluate the effect of each treatment. We always disrupted the barrier between 7:00 AM and 8:00 AM and carried out the measurements of the barrier repair thereafter to avoid the influence of circadian rhythm on the repair rate(Denda and Tsuchiya, 2000). TEWL was measured over the same sites at 1, 3 and 6 hours after barrier disruption. The barrier recovery results are expressed as percent recovery, because of variations from day to day in the extent of barrier disruption. In each animal, the percentage recovery was calculated according to the following formula:

Assay [2] has as its system Normal human epithelial keratinocytes (NHEK). As to the kind of experiment: Ca2+ imaging (fura-2) in single cultured keratinocytes. The assay is classed as cell-based. As for the experimental part: Normal human epithelial keratinocytes (NHEK) were purchased from Kurabo (Osaka, Japan). NHEK were cultured in serum-free keratinocyte growth medium, consisting of Humedia-KB2 (Kurabo, Osaka, Japan) supplemented with bovine pituitary extract (0.4% vol/vol), human recombinant epidermal growth (0.1 μg per mL), insulin (10 μg per mL), and hydrocortisol (0.5 μg per mL). The medium was replaced every 2-3 d. For the electrophysiological experiments, NHEK (passage 1-3 cells) were seeded onto collagen-coated glass coverslips and used within 4 d. Ca^2+ imaging in single keratinocytes
NHEK were grown to approximately 80-100% confluency on collagen-coated cover glass chambers (Nalge Nunc, Naperville, Ill.). Changes in [Ca^2+] in single cells were measured by the fura-2 method as described by Grynkiewicz et al. (1985) with minor modifications(Koizumi et al, 1998). In brief, the culture medium was replaced with a balanced salt solution (BSS) of the following composition (mM): NaCl 150, KCl 5, CaCl21.8, MgCl2 1.2, HEPES 25, NaH2PO4 1.2 and D-glucose 10 (pH 7.4) or calcium-free BSS which had the same composition as the above BSS with 1 mM EGTA and no added CaCl2. Cells were loaded with 5 μM fura-2 acetoxymethylester (fura-2AM, Molecular Probes, Eugene, Oreg.) at room temperature (21-23° C.) in BSS for 45 min, washed with BSS, and incubated for a further 30 min to allow de-esterification of the loaded dye. The cover slip was mounted on an inverted epifluorescence microscope (IX70, TS Olympus, Tokyo, Japan), equipped with a 75 W xenon lamp and band-pass filters of 340 and 380 nm. The image data, recorded by a high-sensivity CCD (charge-coupled-device) camera (ORCA-ER, Hamamatsu Photonics, Hamamatsu, Japan) were evaluated with a Ca^2+ analyzing system (AQUACOSMOS/RATIO, Hamamatsu Photonics). SNAP (300 μM), ODQ (10 μM) and nifedipine (50 μM) were dissolved in the BSS and the cells were exposed to the solution by perfusion. We observed four lots of pooled cells for each treatment. […] Data were represented as the ratio of fluorescence intensities at 340 and 380 nm.

For assay [3], the system named is hairless mice. As to the kind of experiment: Epidermal hyperplasia induced by barrier disruption (acetone) under low humidity. Format: in vivo, mouse. Conditions: for epidermal proliferation (number of BrdU-positive cells, DNA synthesis) / epidermal thickness: topical application after acetone treatment under low humidity, compared with acetone treated skin; for epidermal hyperplasia induced by acetone treatment under low environmental humidity: topical application, 1 µM, 48 hours in dry condition. The protocol: Hairless mice were kept separately in 7.2-liter cages in which the relative humidity was maintained at less than 10% with dry air as described previously(Denda et al, 1998). The temperature was the same in all cases (22-25° C.), and fresh air was circulated 100 times per hour. Animals were kept out of the direct stream of air. During the experiments, the animal's behavior was not restricted. The level of NH3 was always below 1 ppm. Animals were first kept in a dry condition for 48 hours and then the skin on both flanks was treated with acetone-soaked cotton balls, as described previously(Denda et al, 1998). The procedure was terminated when TEWL reached 2.5-3.5 mg per cm^2 per h. Immediately after the barrier disruption, 100 μl of nNOS inhibitor and ODQ aqueous solution (1 μM) was applied on one side of the treated area. Water was applied on the other side. Then the animals were again kept in the dry condition for 48 hours. After the experiments, animals were euthanized with diethylether inhalation and skin samples were taken from the treated areas. One hour before euthanization, 20 μl per g body weight of a 10 mM solution of bromodeoxyuridine (BrdU) was injected intraperitoneally. Untreated control mice were also treated with BrdU at the same time. After fixation with 4% paraformaldehyde, full thickness skin samples were embedded in paraffin, sectioned (4 μm), and processed for hematoxylin and eosin staining. On each section, five areas were selected at random; the thickness of the epidermis was measured with an optical micrometer, and the mean value was calculated. For the assessment of DNA synthesis, the sections were immunostained with anti-BrdU antibodies. On each section, five areas were selected at random from one section; the number of immunostained cells per 1 mm of epidermis was counted and the epidermal thickness was measured with an optical micrometer. The mean value was calculated. Measurements were carried out in an observer-blinded fashion. NO evaluation in hairless mouse epidermis

For the next assay, the system named is skin of hairless mice. As to the kind of experiment: NO release from skin organ culture after tape stripping. The settings on record: pre-incubation with inhibitor 100 μM; skin organ culture in PBS, 30 min at 37° C. Set-up: species or system mouse. The text has this:
Four male hairless mice (7-10 wk old) were killed by cervical dislocation under anesthesia and skin samples were taken immediately from both flanks. Subcutaneous fat was removed with a scalpel and the skin samples that contained epidermis and dermis, were cut into squares (1.5×1.5 cm^2). […] of skin from the two flanks of each animal were placed, epidermis side upwards, in separate 35-mm culture dishes kept in an ice/water bath, and one of them was tape-stripped four times. The other piece of skin was not treated. One milliliter of phosphate-buffered saline (PBS) was added to both dishes, which were incubated for 30 min at 37° C. After the incubation, 50 μL aliquots of the PBS were removed. NO released into the PBS was quantified using a total nitric oxide assay kit (Immuno-Biological Laboratories Co., Ltd, Gunma, Japan), according to the manufacturer's instruction.

Where [4] appears, read: topical application of 1 μM aqueous solution, 1, 3 and 6 hours after tape stripping, vs water control.

Take `CC(=O)NC(C(=O)O)C(C)(C)SN=O` (racemic) [SNAP, S-nitroso-N-acetyl-D,L-penicillamine]: the “barrier recovery after tape stripping (percent recovery of TEWL)” value in the assay on hairless mice [1] (topical application of one millimolar solution of SNAP, vs control) was “delayed skin barrier recovery”. Besides, the “intracellular calcium concentration (ratio 340 nm/380 nm, fura-2)” value in assay [2] (300 μM SNAP, calcium-containing BSS) is “increased”; in assay [2] (SNAP, calcium-free medium), “an increase of [Ca^2+] was induced”.
`COC(=O)[C@@H](N)CCCNC(=N)N[N+](=O)[O-]` [L-NAMA, L-N(G)-nitro-L-arginine methyl ester]: the “barrier recovery after tape stripping (percent recovery of TEWL)” value in the assay on hairless mice [1] (setting [4]) is “accelerated the barrier repair”.
On the same count and under the same terms, the result for `O=c1onc2n1-c1cc(Br)ccc1OC2` [NS 2028, 4H-8-bromo-1,2,4-oxadiazolo[3,4-dibenz[b][1,4]oxazin-1-one] reads “accelerated the barrier recovery”.
Turning to `O=c1onc2cnc3ccccc3n12` [ODQ, 1H-[1,2,4]oxadiazolo[4,3-a]quinoxalin-1-one], in the assay on hairless mice [1] (setting [4]), the “barrier recovery after tape stripping (percent recovery of TEWL)” value was “accelerated the barrier recovery”. Moreover, the “effect on increase of intracellular calcium induced by SNAP” value in assay [2] (300 μM SNAP with 10 μM ODQ or 50 μM nifedipine) is given as “blocked”. Further, in the assay with hairless mice [3], the “epidermal proliferation (number of BrdU-positive cells, DNA synthesis)” value is listed as “Significant reductions”; the epidermal thickness entry is given as “Significant reductions”; the “epidermal hyperplasia induced by acetone treatment under low environmental humidity” value is given as “prevented the hyperplasia”.
As for `Nc1c[n+](N2CCOCC2)no1.[Cl-]` [SIN, SIN-1 chloride], in the assay on hairless mice [1] (setting [4]), the “barrier recovery after tape stripping (percent recovery of TEWL)” value is on record as “delayed the barrier recovery”.
For `CSC(=N)N` [iNOS inhibitor, S-methylisothiourea], the “barrier recovery after tape stripping (percent recovery of TEWL)” value in the assay with hairless mice [1] (setting [4]) is “did not affect the barrier recovery”. In addition, the “increase of NO level (release) after tape stripping” value with skin of hairless mice is “did not affect”.
As to `CCCNC(=N)NCCC[C@H](N)C(=O)O` [nNOS inhibitor, N^ω-propyl-L-arginine], the “barrier recovery after tape stripping (percent recovery of TEWL)” value with hairless mice [1] (setting [4]) is “accelerated the barrier repair”. In addition, in the assay with skin of hairless mice, the “increase of NO level (release) after tape stripping” value is reported as “blocked”. Also, in the assay with hairless mice [3], the “epidermal proliferation (number of BrdU-positive cells, DNA synthesis)” value is reported as “Significant reductions”; the epidermal thickness result was “Significant reductions”; the “epidermal hyperplasia induced by acetone treatment under low environmental humidity” value is reported as “prevented the epidermal hyperplasia”.
